Experimental data reported in patent publication US7754896B2, “Indol-alanine derivatives as selective S1P4-agonists” (Novartis AG, priority 2004, dated 2010).

System: CHO
Test: GTPγS binding assay, membranes of wild type CHO cells
Format: biochemical
Procedure: Membrane proteins are prepared from wild type CHO-K1 and the CHO cell clones expressing human S1P4. To obtain 10-30 mg of membrane proteins, cells are grown in one large culture dish (500 cm^2) per cell clone to 80 and 90% confluence. The culture medium is removed and the cells are harvested on ice from the dish, by scraping in 20 ml cold HEPES 10 mM (pH 7.5) supplemented with 0.1% fatty acid-free bovine serum albumin (BSA) and protease inhibitors cocktail (one tablet per 50 ml, Roche Diagnostics, Rotkreuz). […] The protein concentration is determined using the Bio Rad Protein Assay and human IgG as standard. […]
The selection of the clones to be tested in the GTPγS assay is based on the real time PCR assays. […] The plates are then centrifuged for 10 minutes at 2000 rpm and counted with a TopCount instrument (Packard). […]
The compounds mentioned in this application are tested for specificity, e.g. the activity they have in the parental cell line prior transformation with the S1P4 cDNA and for selectivity on CHO cells lines transformed with the S1P1, S1P2, S1P3, and S1P5. […] For example, S1P4 specific and selective compounds may have an EC50 (apparent EC50) measured at S1P4 that is 10×, preferably 100× lower that that measured in wild type CHO cells or In cell expressing any of the other four S1P receptors.

## NC(CNC(=O)c1cc2c(-c3ccccc3Cc3ccccc3)cccc2[nH]1)C(=O)O (stereo not shown) [Example 2]
  EC50: > 10 µM
